The target of series [1] is T1, MDR1-transfected MDCK cells (Homo sapiens, UniProt P08183).
T1 construct: host or cells: MDCK cells
Description: Bidirectional transport in MDR1-transfected MDCK cell monolayers. Type of series: in vitro ADME. To be noted: MDR1-MDCK. As to the method: (§1) MDR1-transfected MDCK cell monolayers, cultured for 5 days and obtained from the Netherlands Cancer Institute, were used for the in vitro bidirectional transport studies. Cells were maintained in Dulbecco’s Modified Eagle Medium (DMEM) supplemented with 10% fetal bovine serum (FBS) and 1% penicillin–streptomycin. They were subcultured every other day at a split ratio of 1:3 to 1:5. For transport experiments, cells were seeded onto polycarbonate Transwell® filter inserts (Millipore) in 24-well plates at a density of 500,000 cells per well. After 24 h, the medium was replaced, and the cells were cultured for an additional 4 days to allow tight junction formation before initiating the transport assays. Transport studies were performed in duplicate using a 2 μM concentration of test compound, in both apical-to-basolateral (A→B) and basolateral-to-apical (B→A) directions. The apparent permeability coefficient (P_app) was calculated using the following equation: Papp (cm/s) = (Vr/C0) (1/S) (dC/dt)
(§2) • P_app is the apparent permeability, • V_r is the volume of the receiver chamber, • C0 is the initial concentration in the donor chamber, • S is the surface area of the cell monolayer (0.7 cm^2; for a 24-well insert), • dC/dt is the rate of appearance of the compound in the receiver chamber.
(§3) The efflux ratio was calculated as: (1) Efflux ratio=Papp B−A/Papp A−B
(§4) Bioanalysis was carried out using LC-MS/MS.

The next series has as its target T2, MDR1 (Homo sapiens, UniProt P08183).
T2 construct: host or cells: MDCK cells
Described as above. The class given is in vitro ADME. To be noted: dog; for recovery at 2 μM: MDCK-MDR1, MDR1-MDCK permeability assay; for Papp A→B at 2 μM / Papp B→A at 2 μM: MDCK-MDR1; for Papp A→B at 2 μM: apical-to-basolateral, read-out: A→B apparent permeability; for Papp B→A at 2 μM: basolateral-to-apical, read-out: B→A apparent permeability. How it is done: as §1, §2, §3, §4

The target in series [2] is T3, α-synuclein (α-syn) aggregates in PD brain homogenates (Homo sapiens, UniProt P37840).
T3 construct: Anterior cingulate cortex tissue from a Parkinson’s disease (PD) case; tissue Banner Sun Health Research Institute (Dr. Thomas Beach); host or cells: post-mortem human PD anterior cingulate cortex homogenate
In words: Two point screening assay (30 nM and 300 nM) vs [3H]asyn-44 in human PD brain homogenates. Type of series: binding. How it is done: Screening assays for the test compounds were performed at two concentrations—30 nM and 300 nM—using unlabelled competitors in human PD brain homogenates against [^3H]asyn-44 as previously described. […] Each assay was conducted in triplicate for both concentrations to ensure reproducibility and statistical reliability.

In series [3] the target is [^3H]MK-6240 binding in post-mortem Alzheimer’s disease (AD) brain tissue (Homo sapiens, UniProt P10636). Description: Competition binding vs [3H]MK-6240 in post-mortem AD brain tissue. An excerpt:
(§5) We assessed the binding affinity of LMD-022 using a radioligand competition binding assay in post-mortem PD brain tissues. […] To evaluate potential off-target binding in AD brain tissues, we conducted additional binding assays using a panel of AD-related radioligands, including [^3H]PiB, [^3H]MK-6240, [^3H]Z-2340, and [^3H]PI-2620. […] Our future work will aim to optimize chemical yields of lead compounds, including LMD-022, and carry out α-syn fibril seed amplification assays or immunohistochemical co-localization with pathologic α-syn to verify target engagement as well as radiolabel lead molecules for in vivo PET imaging studies.

The target of series [4] is [^3H]PI-2620 binding in post-mortem Alzheimer’s disease (AD) brain tissue (Homo sapiens, UniProt P10636). In words: Competition binding vs [3H]PI-2620 in post-mortem AD brain tissue.
[^3H]PI-2620 binding in post-mortem Alzheimer’s disease (AD) brain tissue, sequence (P10636 623-695 limits assumed): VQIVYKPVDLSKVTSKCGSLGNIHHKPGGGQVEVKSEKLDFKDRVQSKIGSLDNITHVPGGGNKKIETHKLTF
Excerpt: as §5

Series [5] addresses T4, [^3H]PiB binding in post-mortem Alzheimer’s disease (AD) brain tissue (Homo sapiens, UniProt P05067).
T4 construct: from tissue; host or cells: post-mortem AD brain tissue
Description: Competition binding vs [3H]PiB in post-mortem AD brain tissue.
Excerpt: as §5

For series [6], the target named is [^3H]Z-2340 binding in post-mortem Alzheimer’s disease (AD) brain tissue. Description: Competition binding vs [3H]Z-2340 in post-mortem AD brain tissue. The arrangement: species or system human.
Excerpt: as §5

A short description of series [7]: Metabolic stability in human liver microsomes. The class given is in vitro ADME. How it is done: Metabolic stability assays were conducted using pooled human liver microsomes (HLMs) to evaluate the rate of in vitro metabolic degradation of the test compound. Incubations were carried out in duplicate (n = 2) at a final compound concentration of 1 μM. The protein concentration of the microsomal suspension was adjusted to 0.5 mg/mL using phosphate buffer (100 mM, pH 7.4). Reactions were initiated by the addition of NADPH (final concentration 1 mM) and incubated at 37 °C. Aliquots were taken at four time points: 0, 5, 15, and 30 min. Each reaction was quenched with ice-cold acetonitrile containing internal standard, followed by centrifugation to pellet proteins. Supernatants were analyzed using a validated LC-MS/MS method to determine the concentration of the parent compound at each time point. […] Metabolic stability was assessed by calculating the percentage of the parent compound remaining at each time point. The elimination rate constant (k), half-life (t1/2), and intrinsic clearance (CLint) were derived from the natural log-transformed concentration vs. time data, assuming first-order kinetics.
(Microsomes from liver hold many membrane-bound enzymes, among them those of drug oxidation.)

The target in series [8] is T3, α-synuclein (α-syn) aggregates in PD brain homogenates. Description: In vitro competition (Ki) assay vs [3H]asyn-44 in PD brain homogenates. The class given is binding. Particulars: 1 nM [3H]asyn-44. How it is done:
Anterior cingulate cortex tissue from a Parkinson’s disease (PD) case was generously provided by Dr. Thomas Beach at the Banner Sun Health Research Institute in Arizona, USA. […] Preparation of the frozen blocks for binding assays followed previously established protocols.
The equilibrium inhibition constants (Ki) for the unlabelled compounds were measured against [^3H]asyn-44 using our previously reported procedure. For these assays, frozen aliquots of homogenized human brain tissue (stored at −80 °C) were used. Homogenates were prepared at 10 mg/mL in phosphate-buffered saline, then diluted with 50 mM Tris buffer (pH 7.0) to a working concentration of 1 mg/mL.
Unlabeled competitor compounds were initially dissolved in DMSO at 400 μM, then diluted with Tris buffer to 20 μM, resulting in a 5% DMSO concentration. A serial dilution series (ranging from 6 μM to 4 nM) was prepared in the same 5% DMSO/Tris buffer solution to maintain consistent solvent conditions throughout the assay.
To perform the binding assay, 50 μL of the appropriately diluted competitor solution was mixed with 50 μL of [^3H]asyn-44 (1 nM final concentration) and 800 μL of Tris buffer containing 20% ethanol and 0.1% bovine serum albumin (BSA). Then, 100 μL of the 1 mg/mL brain homogenate was added, bringing the final tissue concentration to 100 μg/mL. The reaction mixtures were incubated at room temperature for 60 min before filtration through Whatman GF/B glass fibre filters using a Brandel M-24R cell harvester (Gaithersburg, MD, USA). Filters were washed three times with 3 mL of Tris buffer containing 20% ethanol and 0.1% BSA.
After washing, retained radioactivity was measured using CytoScint-ES scintillation fluid following thorough vortexing. Specific binding was calculated by correcting for nonspecific binding (as described later), and the amount of bound radioligand was derived from the filter-associated radioactivity and the molar activity of the tritiated compound.

The test system of another series is DLB tissue. Also noted: method as in PMID 38843838. Particulars: cited from earlier work.
The target of series [9] is T3, α-synuclein (α-syn) aggregates in PD brain homogenates. The arrangement: method as in PMID 38354298. Particulars: parent ligand, value printed in Figure 2; cited from earlier work.
Series [10] has as its target post-mortem PD brain tissue. The arrangement: method as in PMID 38354298. To be noted: cited from earlier work.
In series [11] the target is α-syn fibrils. Also noted: method as in PMID 37421950. To be noted: cited from earlier work.
Series [12] has as its target α-syn fibrils. Also noted: method as in PMID 40256311. To be noted: cited from earlier work.
The target in a further series is PD brain tissue. Also noted: method as in PMID 40256311. To be noted: cited from earlier work.
Setting [13] is: A→B, read-out: Calculated recovery, A→B direction.
[14] abbreviates: B→A, read-out: Calculated recovery, B→A direction.

SMILES strings stand for the structures. Where two headings read alike, the source gives them in different places.

T1 sequence (P08183 whole entry): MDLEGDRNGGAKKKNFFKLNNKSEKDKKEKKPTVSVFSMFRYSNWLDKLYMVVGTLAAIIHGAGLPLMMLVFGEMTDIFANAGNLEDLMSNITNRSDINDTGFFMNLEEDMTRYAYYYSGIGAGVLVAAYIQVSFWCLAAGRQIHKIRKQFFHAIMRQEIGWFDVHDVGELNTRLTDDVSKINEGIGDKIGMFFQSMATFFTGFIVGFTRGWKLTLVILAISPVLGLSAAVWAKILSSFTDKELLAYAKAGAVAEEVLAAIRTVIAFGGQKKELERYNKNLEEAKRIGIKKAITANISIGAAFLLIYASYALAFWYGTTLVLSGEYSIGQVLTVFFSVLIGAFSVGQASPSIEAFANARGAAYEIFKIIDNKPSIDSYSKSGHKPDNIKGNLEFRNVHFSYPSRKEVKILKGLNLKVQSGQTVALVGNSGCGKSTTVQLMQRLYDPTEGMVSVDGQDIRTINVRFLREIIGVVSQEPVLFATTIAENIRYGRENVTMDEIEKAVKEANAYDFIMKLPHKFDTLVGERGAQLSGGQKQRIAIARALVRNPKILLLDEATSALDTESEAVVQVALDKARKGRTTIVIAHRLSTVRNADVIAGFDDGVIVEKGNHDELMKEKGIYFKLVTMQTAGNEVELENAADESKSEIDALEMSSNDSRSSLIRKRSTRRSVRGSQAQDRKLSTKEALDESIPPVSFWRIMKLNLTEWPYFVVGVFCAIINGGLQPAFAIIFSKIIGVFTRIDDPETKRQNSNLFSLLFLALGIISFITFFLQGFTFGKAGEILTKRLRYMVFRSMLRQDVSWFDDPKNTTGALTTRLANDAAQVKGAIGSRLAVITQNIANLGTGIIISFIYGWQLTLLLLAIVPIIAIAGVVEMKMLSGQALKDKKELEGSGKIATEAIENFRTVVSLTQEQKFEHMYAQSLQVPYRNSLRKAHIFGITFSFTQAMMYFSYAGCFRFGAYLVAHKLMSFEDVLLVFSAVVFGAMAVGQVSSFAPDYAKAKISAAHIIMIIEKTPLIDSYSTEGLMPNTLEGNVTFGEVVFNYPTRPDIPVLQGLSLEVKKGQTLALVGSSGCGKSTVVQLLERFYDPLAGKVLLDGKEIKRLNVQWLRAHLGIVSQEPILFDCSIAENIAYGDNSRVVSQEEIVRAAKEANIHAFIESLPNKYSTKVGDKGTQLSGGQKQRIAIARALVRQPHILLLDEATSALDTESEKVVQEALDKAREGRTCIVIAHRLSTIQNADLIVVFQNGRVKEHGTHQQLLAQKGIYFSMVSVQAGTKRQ
T2 sequence (P08183 whole entry): as above
T4 sequence (P05067 672-713 limits assumed): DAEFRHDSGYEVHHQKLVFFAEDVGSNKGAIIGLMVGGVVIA
[^3H]MK-6240 binding in post-mortem Alzheimer’s disease (AD) brain tissue, sequence (P10636 623-758 limits assumed): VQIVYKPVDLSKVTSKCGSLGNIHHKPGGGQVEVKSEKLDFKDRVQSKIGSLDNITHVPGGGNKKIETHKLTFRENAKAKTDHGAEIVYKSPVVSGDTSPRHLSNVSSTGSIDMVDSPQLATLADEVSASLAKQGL

In the case of `C[C@H]1O[C@@H](O[C@H]2[C@@H](O)C[C@H](O[C@H]3[C@@H](O)C[C@H](O[C@H]4CC[C@@]5(C)[C@H](CC[C@@H]6[C@@H]5C[C@@H](O)[C@]5(C)[C@@H](C7=CC(=O)OC7)CC[C@]65O)C4)O[C@@H]3C)O[C@@H]2C)C[C@H](O)[C@@H]1O` [Digoxin], in [1], the “Efflux Category” value is reported as “Substrate of efflux” and the “Permeability Category” value is recorded as “Low”. Besides, on MDR1 (setting [13]), the recovery at 2 μM is 79.7%. In addition, on MDR1 (setting [14]), the recovery at 2 μM was 108%. On MDR1, the Papp A→B at 2 μM is 1.65 ×10⁻⁶ cm/s.
In general, remaining activity refers to what remains of the control signal, in per cent. Higher therefore signals much activity left. What is called Ki is the dissociation constant of the complex between target and ligand, obtained from inhibition or displacement. For orientation: half-life means the time needed for the level to fall by half in the phase considered. High values mean slow loss, low ones fast loss. The fraction remaining is what is left of the initial amount, in per cent. Low values mean a greater loss, high ones greater stability. For `O=C1NCc2nc(-c3cnc(N4CC[C@@H](F)C4)cn3)ccc21` [LMD-022], the “Efflux Category” value in series [1] is reported as “Not a substrate”. In addition, in series [1], the “Permeability Category” value is “High”. Besides, the recovery at 2 μM was 61.9% on MDR1 (setting [13]) and 120% on MDR1 (setting [14]). The Papp A→B at 2 μM on MDR1 is 40.6 ×10⁻⁶ cm/s. Moreover, the Papp B→A at 2 μM at MDR1 turned out to be 37.6 ×10⁻⁶ cm/s. Moreover, the efflux ratio at 2 μM on MDR1 (MDR1-MDCK, read-out: Efflux Ratio (B→A/A→B)) amounted to 0.93. In series [2] (30 nM competitor), this molecule displayed a remaining activity at 0.03 µM of 40%. Further, in series [2] (300 nM competitor), the remaining activity at 0.3 µM came out at 15%. Besides, the inhibition constant (Ki) in [3] is over 10000 nM; in series [4], 2760 nM; in series [5], over 10000 nM; in series [6], over 10000 nM; in series [8] it was 16 nM. This molecule came in with a t1/2 in [7] (human liver microsomes (h-MR)) of 1.26 h. Moreover, in series [7] (human liver microsomes, 5 min), the “% disappearance at 5 minutes relative to time zero” value is listed as 7.6%. Moreover, the “% disappearance at 15 minutes relative to time zero” value in [7] (human liver microsomes, 15 min) amounted to 17.8%. For the same molecule, the “% disappearance at 30 minutes relative to time zero” value in [7] (human liver microsomes, 30 min) is reported as 24.6%. For the same molecule, the “Clearance Category” value in series [7] (human liver microsomes, as per Cyprotex Website) is reported as “Moderate”. Besides, the half-life at 1 μM in series [7] (human, pooled human liver microsomes, pH 7.4, human liver microsomes (h-MR)) stood at 1.25 h. The share remaining at 5 min, 1 μM in [7] (pooled human liver microsomes, pH 7.4, human liver microsomes, 1 μM, 5 min) was determined as 92.4%. This molecule showed a fraction remaining at 0.5 h, 1 μM in series [7] (pooled human liver microsomes, pH 7.4, human liver microsomes, 1 μM, 30 min) of 75.4%.
What is called IC50 is the point on the concentration scale where inhibition reaches its midpoint. Consider `CNc1ccc(C#C/C=C/c2nc3ccc(OCC(O)C[18F])cc3s2)cn1` (stereo not drawn) [[^18F]C05-05], for which, in the series on DLB tissue, the 50% inhibitory concentration (IC50) was 1.5 nM.
By Kd is commonly meant the concentration at which binding is half-saturated. With `F[C@@H]1CCN(c2ccc(-c3ccc4sc(-c5cccnc5)cc4n3)cn2)C1` [Asyn-44], the Ki in series [9] is 9 nM. Also, in series [10], the Kd is 1.85 nM.
For the molecule `Cc1cc2nc(/C=C/c3ccc(O)c(Br)c3)sc2cc1N(C)CCOCC[18F]` [[^18F]F0502B], on α-syn fibrils [11], the Kd is 11 nM.
On to `[11CH3]Oc1ccc(NC(=O)c2cnc(N3CCN(c4ccccn4)CC3)nc2N)cc1` [[^11C]M503-1619], for which the Ki at α-syn fibrils [12] is 6.5 nM. On PD brain tissue, the dissociation constant (Kd) was 1.5 nM.
For the molecule `CC(C)NCC(O)COc1cccc2ccccc12` (stereo not drawn) [Propranolol], in series [1], the “Efflux Category” value is reported as “Not a substrate” and the “Permeability Category” value is “Medium”. For the same molecule, at MDR1 (setting [13]), the recovery at 2 μM was 95%. Besides, the recovery at 2 μM on MDR1 (setting [14]) is 116%. Further, on MDR1, the Papp A→B at 2 μM is 9.28 ×10⁻⁶ cm/s and the Papp B→A at 2 μM was 8.03 ×10⁻⁶ cm/s.

These data come from PMC12523303, “Multi-Fused S,N-Heterocyclic Compounds for Targeting α-Synuclein Aggregates” (Cells, 2025).
